From patent US20200054651A1, “COMPOSITIONS AND METHODS FOR MODULATING PPP2R1A” (The Regents of the University of California, priority 2017, published 2020)

Legend:
[1] = test system: 231MFP breast cancer cells; assay: 231MFP cell proliferation (Hoechst staining); type: cell-based; settings: 48 h; for cell proliferation: 231MFP
C377 of PPP2R1A = target: T1, C377 of PPP2R1A (Homo sapiens, UniProt P30153); assay: isoTOP-ABPP after in situ treatment of 231MFP cells; type: binding; settings: 4 h in 231MFP cells in situ, IAyne labeling ex situ
T1 construct: pre-incubating withaferin A (10 μM) for 30 min in 231MFP breast cancer cell proteomes; endogenous in cells; host or cells: 231MFP breast cancer cells (MDA-MB-231 derived)
T1 sequence (P30153 whole entry): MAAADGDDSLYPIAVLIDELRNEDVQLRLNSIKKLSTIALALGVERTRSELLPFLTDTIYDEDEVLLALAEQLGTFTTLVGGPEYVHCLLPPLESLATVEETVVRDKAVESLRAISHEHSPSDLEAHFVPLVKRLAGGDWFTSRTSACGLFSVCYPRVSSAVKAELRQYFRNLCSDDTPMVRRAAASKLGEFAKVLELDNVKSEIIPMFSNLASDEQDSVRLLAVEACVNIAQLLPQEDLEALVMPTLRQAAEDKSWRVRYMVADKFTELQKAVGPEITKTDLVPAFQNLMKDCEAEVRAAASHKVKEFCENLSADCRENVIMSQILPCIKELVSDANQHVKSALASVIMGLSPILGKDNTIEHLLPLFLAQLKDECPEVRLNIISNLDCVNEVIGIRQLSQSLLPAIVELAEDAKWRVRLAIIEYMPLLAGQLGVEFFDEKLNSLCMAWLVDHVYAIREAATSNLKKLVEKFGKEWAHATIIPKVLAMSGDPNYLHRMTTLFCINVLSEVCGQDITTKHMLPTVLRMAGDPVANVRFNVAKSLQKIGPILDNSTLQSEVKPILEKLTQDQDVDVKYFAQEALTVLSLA
Method: IsoTOP-ABPP studies were performed using the methods described in “Nature 534(7608), 570-574 (2016)” by Backus K. M., et al. and “Nature 468(7325), 790-795 (2010)” by Weerapana E., et al. […] Then, IAyne (iodoacetamide-alkyne) labeling was performed for 1 hour at room temperature. CuAAC was used by sequential addition of tris(2-carboxyethyl)phosphine (1 mM), tris[(1-benzyl-1H-1,2,3-triazol-4-yl)methyl]amine (34 μM), copper (II) sulfate (1 mM), and biotin-linker-azide where the linker was functionalized with a TEV protease recognition sequence along with an isotopically light or heavy valine for treatment of control or treated proteome, respectively. After click reactions, proteomes were precipitated by centrifugation at 6500×g, washed in ice-cold methanol, combined in a 1:1 control/treated ratio, washed again, then denatured and re-solubilized by heating in 1.2% SDS/PBS to 80° C. for 5 minutes. Insoluble components were precipitated by centrifugation at 6500×g and soluble proteome was diluted in 0.2% SDS/PBS (5 ml). Labeled proteins were bound to avidin-agarose beads (170 μl re-suspended beads/sample) while rotating overnight at 4° C. Bead-linked proteins were enriched by washing three times each in PBS and water, then re-suspended in urea/PBS (6 M), reduced in TCEP (1 mM), alkylated with iodoacetamide (18 mM), then washed and re-suspended in urea/PBS (2 M), and finally trypsinized overnight with 0.5 μg/μl sequencing grade trypsin. Tryptic peptides were eluted off. Beads were washed in PBS (3 times) and water (3 times), washed in TEV buffer solution (water, TEV buffer, 100 μM dithiothreitol), and re-suspended in buffer with Ac-TEV protease and then incubated overnight. Peptides were diluted in water, acidified with formic acid (1.2 M), and prepared for analysis.
Peptides from all proteomic experiments were pressure-loaded onto an Agilent 600 series RP-HPLC system equipped with a capillary tubing (250 mm) packed with Aqua C18 reverse-phase resin (4 cm). The system was previously equilibrated with a gradient (0% B to 100% B over 10 minutes, 100% B for 5 minutes, then 0% B for 5 minutes; buffer A: 95:5 water:acetonitrile, 0.1% formic acid; buffer B: 80:20 acetonitrile:water, 0.1% formic acid). The samples were then attached using a MicroTee PEEK 360 μm fitting to a laser pulled column (13 cm) packed with Aqua C18 reverse-phase resin (10 cm) and strong-cation exchange resin (3 cm) for isoTOP-ABPP studies. Samples were analyzed using an Q Exactive Plus mass spectrometer using a 5-step Multidimensional Protein Identification Technology (MudPIT) program. The system was run using a gradient (5% B to 55% B; buffer A: 95:5 water:acetonitrile, 0.1% formic acid; buffer B: 80:20 acetonitrile:water, 0.1% formic acid), along with a salt bump feeding aqueous ammonium acetate (500 mM) at an increment of 0%, 25%, 50%, 80%, to 100%. Data was collected in data-dependent acquisition mode with dynamic exclusion enabled (60 sec). One full MS scan (400-1800 m/z) (MS1 scan) was conducted, followed by MS2 scan (ITMS) (15 times) of the most abundant ions. Heated capillary temperature was set to 200° C. and the nanospray voltage was set to 2.75 kV.
Data was extracted in the form of MS1 and MS2 files using Raw Extractor 1.9.9.2 and searched against the Uniprot […] database using ProLuCID search methodology in IP2 v.3, described in “J Proteomics 129:16-24 (2015)” by Xu T, et al. Cysteine residues were searched with a static modification for carboxyaminomethylation (+m/z 57.02146), up to two differential modifications for methionine oxidation, and either the light or heavy TEV tags (+m/z 464.28596 or +m/z 470.29977, respectively). Peptides were required to have at least one tryptic end and to contain the TEV modification. ProLUCID data was filtered through DTASelect to achieve a peptide false-positive rate below 1%. […]

[2] = target: T2, pure human PPP2R1A protein (Homo sapiens, UniProt P30153); assay: Gel-based ABPP, competition against IAyne labeling; type: binding; settings: for competition against IAyne labeling of pure human PPP2R1A: 30 min pre-incubation; for IC50: 30 min at 37° C. pre-treatment, IAyne labeling
T2 construct: purchased Origene
T2 sequence (P30153 whole entry): as above
Method: Gel-based ABPP methods were performed using the methods described in “Chem Biol 22(10), 1394-1405 (2015)” by Medina-Cleghorn D., et al. Recombinant pure human proteins were purchased from Origene. Pure proteins were pre-treated with DMSO, Withaferin A, or acrylamide or chloroacetamide compounds (e.g., DKM 2-90 or JNS 1-40) for 30 minutes at 37° C. in an incubation volume of PBS (50 μL), and were subsequently treated with IAyne (10 μM final concentration) for 30 minutes at room temperature. CuAAC was performed to append rhodamine-azide onto IAyne probe-labeled proteins. The samples were separated by SDS/PAGE and scanned using a ChemiDoc MP. Inhibition of target labeling was assessed by densitometry using ImageStudio Light software.

[3] = test system: phosphorylated AKT (p-AKT); assay: Western blot of phosphorylated AKT in 231MFP cells; type: cell-based
Method: Antibodies to vinculin, phospho-Akt (Ser473), and Akt were obtained from a commercial source and proteomes were blotted per recommended manufacturer's' procedure. Cells were lysed in lysis buffer (containing the following: 20 mM Tris pH 7.5, 150 mM NaCl, 1 mM EDTA, 1 mM EGTA, 1% Triton X-100, 2.5 mM pyrophosphate, 50 mM NaF, 5 mM (3-glycero-phosphate, 1 mM Na3VO4, 50 nM calyculin A, and protease inhibitors). Lysate was incubated on a rotator at 4° C. for 30 min, and insoluble material was removed via centrifugation at a max speed for 10 minutes. Proteins were resolved by SDS/PAGE and transferred to nitrocellulose membranes using the iBlot system. Blots were blocked with 5% nonfat milk in Tris-buffered saline containing Tween 20 (TBST) solution for 1 hour at room temperature, washed in TBST, and probed with primary antibody diluted in a manufacturer recommended diluent overnight at 4° C. Following washes with TBST, the blots were incubated in the dark with secondary antibodies purchased from Rockland and used at 1:10 000 dilution in 5% nonfat milk in TBST at room temperature. Blots were visualized using an Odyssey Li-Cor scanner after additional washes.

Row | Structure (SMILES) | cell proliferation ([1]; 10 μM) | EC50 ([1]; serum-containing media, Hoechst staining, read-out: 50% effective concentration (EC50), impairment of 231MFP cell proliferation) | isotopically light to heavy ratio, C377 of PPP2R1A (C377 of PPP2R1A; 10 μM) | competition against IAyne labeling of pure human PPP2R1A ([2]; gel-based ABPP) | phosphorylated AKT levels ([3]; 10 μM, 4 h) | phosphorylated AKT levels with cantharidin co-treatment ([3]; 10 μM, 4 h, co-treatment with cantharidin (10 μM, 4 h)) | cell proliferation ([1]; 100 μM) | isotopically light to heavy ratio, C377 of PPP2R1A (C377 of PPP2R1A; 100 μM) | IC50 [2] | improved potency towards PPP2R1A compared to DKM 2-90 ([2]; gel-based ABPP) | phosphorylated AKT levels ([3]; 100 μM, 5 h)
1 | CC1=C(CO)C(=O)O[C@@H]([C@@H](C)[C@H]2CC[C@H]3[C@@H]4C[C@H]5O[C@]56[C@@H](O)C=CC(=O)[C@]6(C)[C@H]4CC[C@]23C)C1 [withaferin A, reference compound] | impairs | 7.5 µM | 4.0 | full competition | reduced phosphorylated AKT levels | rescued |  |  |  |  | 
2 | O=C(CCl)N(Cc1ccccc1)c1ccc2c(c1)OCCO2 [JNS 1-40, N-benzyl-2-chloro-N-(2,3-dihydrobenzo[b][1,4]dioxin-6-yl)acetamide] |  |  |  |  |  |  | impaired | > 5 | 0.63 µM | 16 fold | significantly reduced phosphorylated AKT levels
3 | O=C(CCl)Nc1ccc2c(c1)OCCO2 [DKM 2-90, 2-Chloro-N-(2,3-dihydrobenzo[β][1,4]dioxin-6-yl)acetamide] |  |  |  | confirming the competition |  |  | lead compounds | 5.9 | 10 µM |  | inhibit AKT signaling
